PubChem BioAssay AID248 (DTP/NCI, 2004)
Values joined by “and” are separate entries in the source; they are usually repeats but may differ in a detail not shown here. Equal values may be shown once. Inconclusive results and toxic doses are left out. Cut-off read from the data, not from the text of the source: active = T/C of 150% or more; inactive = T/C below 125%.

System: L1210 leukemia ip in BDF1 mice, survival T/C
Test: NCI In Vivo Anticancer Drug Screen. Data for tumor model L1210 Leukemia (intraperitoneal) in B6D2F1 (BDF1) mice
Settings: endpoint: mean survival time, higher = longer survival
Method in brief: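 Each compound was tested against a transplantable tumor grown in mice. The endpoint was survival, with treated animals benchmarked against vehicle controls as a simple ratio.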

[1] = dose: 100.0 mg/kg/injection, schedule: Q01DX009 (ip), vehicle: saline with Tween-80
[2] = dose: 100.0 mg/kg/injection, schedule: Q04DX003 (ip), vehicle: saline with Tween-80
[3] = dose: 200.0 mg/kg/injection, schedule: Q01DX009 (ip), vehicle: saline with Tween-80
[4] = dose: 200.0 mg/kg/injection, schedule: Q04DX003 (ip), vehicle: saline with Tween-80
[5] = dose: 400.0 mg/kg/injection, schedule: Q04DX003 (ip), vehicle: saline with Tween-80
[6] = dose: 100.0 mg/kg/injection, schedule: Q01DX001 (ip), vehicle: carboxymethylcellulose (CMC)
[7] = dose: 200.0 mg/kg/injection, schedule: Q01DX001 (ip), vehicle: carboxymethylcellulose (CMC)
[8] = dose: 400.0 mg/kg/injection, schedule: Q01DX001 (ip), vehicle: carboxymethylcellulose (CMC)
[9] = dose: 100.0 mg/kg/injection, schedule: Q01DX009 (ip), vehicle: Klucel (hydroxypropylcellulose) (HPC)
[10] = dose: 200.0 mg/kg/injection, schedule: Q01DX009 (ip), vehicle: Klucel (hydroxypropylcellulose) (HPC)
[11] = dose: 50.0 mg/kg/injection, schedule: Q01DX009 (ip), vehicle: Klucel (hydroxypropylcellulose) (HPC)
[12] = dose: 100.0 mg/kg/injection, schedule: Q01DX001 (ip), vehicle: saline
[13] = dose: 200.0 mg/kg/injection, schedule: Q01DX001 (ip), vehicle: saline
[14] = dose: 400.0 mg/kg/injection, schedule: Q01DX001 (ip), vehicle: saline
[15] = dose: 100.0 mg/kg/injection, schedule: Q04DX003 (ip), vehicle: Klucel (hydroxypropylcellulose) (HPC)
[16] = dose: 200.0 mg/kg/injection, schedule: Q04DX003 (ip), vehicle: Klucel (hydroxypropylcellulose) (HPC)
[17] = dose: 25.0 mg/kg/injection, schedule: Q01DX009 (ip), vehicle: Klucel (hydroxypropylcellulose) (HPC)
[18] = dose: 400.0 mg/kg/injection, schedule: Q01DX009 (ip), vehicle: Klucel (hydroxypropylcellulose) (HPC)
[19] = dose: 50.0 mg/kg/injection, schedule: Q01DX001 (ip), vehicle: saline
[20] = dose: 50.0 mg/kg/injection, schedule: Q04DX003 (ip), vehicle: Klucel (hydroxypropylcellulose) (HPC)

Measured: T/C

COc1cc([N+](=O)[O-])ccc1NC(=S)NC(=O)c1ccc(Cl)cc1Cl
inactive: dose: 100.0 mg/kg/injection, schedule: Q01DX001 (ip), vehicle: saline with Tween-80 92 % of control | [1] 91 % of control and 92 % of control | dose: 100.0 mg/kg/injection, schedule: Q04DX002 (ip), vehicle: saline with Tween-80 104 % of control and 87 % of control | [2] 98 % of control | dose: 200.0 mg/kg/injection, schedule: Q01DX001 (ip), vehicle: saline with Tween-80 92 % of control | [3] 95 % of control and 97 % of control | dose: 200.0 mg/kg/injection, schedule: Q04DX002 (ip), vehicle: saline with Tween-80 93 % of control and 97 % of control | [4] 92 % of control | dose: 400.0 mg/kg/injection, schedule: Q01DX001 (ip), vehicle: saline with Tween-80 90 % of control | dose: 400.0 mg/kg/injection, schedule: Q01DX009 (ip), vehicle: saline with Tween-80 93 % of control and 94 % of control | dose: 400.0 mg/kg/injection, schedule: Q04DX002 (ip), vehicle: saline with Tween-80 95 % of control and 87 % of control | [5] 88 % of control

S=c1[nH]cc2cnccn12
inactive: [1] 103 % of control | [2] 98 % of control | [3] 100 % of control | [4] 100 % of control | [5] 89 % of control

COc1ccc(C(=O)OCCN(CCOC(=O)c2ccc(OC)cc2)c2c[nH]c(=O)[nH]c2=O)cc1
inactive: dose: 50.0 mg/kg/injection, schedule: Q01DX001 (ip), vehicle: carboxymethylcellulose (CMC) 106 % of control | [6] 93 % of control | [7] 95 % of control | [8] 93 % of control

Cc1cc(C(=O)O)c(C)o1
inactive: [9] 96 % of control | [10] 93 % of control

[O-][n+]1ccccc1-c1ccccc1
inactive: [11] 104 % of control | [9] 101 % of control | dose: 100.0 mg/kg/injection, schedule: Q04DX002 (ip), vehicle: Klucel (hydroxypropylcellulose) (HPC) 104 % of control | [10] 118 % of control | dose: 200.0 mg/kg/injection, schedule: Q04DX002 (ip), vehicle: Klucel (hydroxypropylcellulose) (HPC) 107 % of control

COc1ccc(C)cc1CCC=O
inactive: [12] 97 % of control | [13] 101 % of control | [14] 95 % of control

CC(=O)CCN1CCCCC1
inactive: dose: 20.0 mg/kg/injection, schedule: Q04DX003 (ip), vehicle: saline 124 % of control

COc1ccc(OC)c(CCl)c1
inactive: dose: 75.0 mg/kg/injection, schedule: Q01DX009 (ip), vehicle: Klucel (hydroxypropylcellulose) (HPC) 97 % of control | dose: 150.0 mg/kg/injection, schedule: Q01DX009 (ip), vehicle: Klucel (hydroxypropylcellulose) (HPC) 103 % of control | dose: 300.0 mg/kg/injection, schedule: Q01DX009 (ip), vehicle: Klucel (hydroxypropylcellulose) (HPC) 91 % of control

N#CC1(Cc2ccc(Br)cc2)c2cc(OC(=O)c3ccccc3)ccc2C=CN1C(=O)c1ccccc1 (centres undefined)
inactive: [15] 96 % of control | [16] 99 % of control | dose: 400.0 mg/kg/injection, schedule: Q04DX003 (ip), vehicle: Klucel (hydroxypropylcellulose) (HPC) 99 % of control

CC(O)C(c1ccccc1)c1ccccc1 (centres undefined)
inactive: dose: 50.0 mg/kg/injection, schedule: Q01DX009 (ip), vehicle: saline with Tween-80 94 % of control | [1] 102 % of control | [3] 97 % of control

O=S(=O)(C(Cl)(Cl)Cl)C(Cl)(Cl)Cl
inactive: [17] 95 % of control | [11] 98 % of control | [9] 93 % of control

CCOC(=O)N/N=C(/C)c1cccc([N+](=O)[O-])c1
inactive: [17] 103 % of control | [11] 103 % of control | [9] 100 % of control and 111 % of control

COC(=O)c1sc2ccccc2c1CC#N
inactive: [6] 103 % of control | [7] 86 % of control | [8] 103 % of control

CC(O)C[N+](=O)[O-] (centres undefined)
inactive: dose: 50.0 mg/kg/injection, schedule: Q01DX009 (ip), vehicle: saline 103 % of control | dose: 100.0 mg/kg/injection, schedule: Q01DX009 (ip), vehicle: saline 98 % of control | dose: 200.0 mg/kg/injection, schedule: Q01DX009 (ip), vehicle: saline 106 % of control

CCN1OCC(C)(C(=O)OC)C1C (centres undefined)
inactive: dose: 100.0 mg/kg/injection, schedule: Q04DX003 (ip), vehicle: saline 102 % of control | dose: 200.0 mg/kg/injection, schedule: Q04DX003 (ip), vehicle: saline 97 % of control | dose: 400.0 mg/kg/injection, schedule: Q04DX003 (ip), vehicle: saline 107 % of control

CCCCCCCCCCCCCCCCCC(=O)Oc1ccc(OCc2ccccc2)cc1
inactive: [9] 105 % of control | [10] 95 % of control | [18] 97 % of control

O=C(Nc1ccc(S(=O)(=O)Nc2ccc(N=Nc3ccccc3)cc2)cc1)C(SC1=NC=NC2=NC=NC21)SC1=NC=NC2=NC=NC21 (centres undefined)
inactive: dose: 75.0 mg/kg/injection, schedule: Q04DX003 (ip), vehicle: saline 104 % of control | dose: 150.0 mg/kg/injection, schedule: Q04DX003 (ip), vehicle: saline 96 % of control | dose: 300.0 mg/kg/injection, schedule: Q04DX003 (ip), vehicle: saline 109 % of control

Cc1ccc(O)c(N=O)c1.[Cu+2]
inactive: [19] 97 % of control | [12] 103 % of control | [13] 103 % of control

COc1cc(NC(=O)Nc2ccc(Cl)cc2[N+](=O)[O-])c(OC)cc1Cl
inactive: [9] 94 % of control | [10] 94 % of control | [18] 89 % of control

CCC(CC)N(C)C(C)(C)CO
inactive: dose: 100.0 mg/kg/injection, schedule: Q04DX003 (ip), vehicle: saline sonified 90 % of control | dose: 200.0 mg/kg/injection, schedule: Q04DX003 (ip), vehicle: saline sonified 87 % of control

CC(C)CSC(SCC(C)C)C(O)C(O)C(O)CO (centres undefined)
inactive: dose: 75.0 mg/kg/injection, schedule: Q01DX001 (ip), vehicle: carboxymethylcellulose (CMC) 98 % of control | dose: 150.0 mg/kg/injection, schedule: Q01DX001 (ip), vehicle: carboxymethylcellulose (CMC) 109 % of control | dose: 300.0 mg/kg/injection, schedule: Q01DX001 (ip), vehicle: carboxymethylcellulose (CMC) 97 % of control

O=C(/C=C\c1ccc(/C=C\C(=O)c2ccccc2O)cc1)c1ccccc1O
inactive: [19] 97 % of control | [12] 97 % of control | [13] 97 % of control | [14] 103 % of control

[CH3][Sb]([CH3])[S]C1OC(CO)C(O)C(O)C1O (centres undefined)
inactive: dose: 12.5 mg/kg/injection, schedule: Q04DX003 (ip), vehicle: Klucel (hydroxypropylcellulose) (HPC) 99 % of control | dose: 25.0 mg/kg/injection, schedule: Q04DX003 (ip), vehicle: Klucel (hydroxypropylcellulose) (HPC) 89 % of control | [20] 95 % of control

Cc1ccccc1NC(=S)N1CCOCC1
inactive: [9] 105 % of control | [10] 108 % of control | [18] 111 % of control

Cc1cc(C)c(F)c(Br)c1N
inactive: [20] 95 % of control | dose: 100.0 mg/kg/injection, schedule: Q01DX001 (ip), vehicle: Klucel (hydroxypropylcellulose) (HPC) 97 % of control | [15] 95 % of control | dose: 200.0 mg/kg/injection, schedule: Q01DX001 (ip), vehicle: Klucel (hydroxypropylcellulose) (HPC) 101 % of control | [16] 106 % of control | dose: 400.0 mg/kg/injection, schedule: Q01DX001 (ip), vehicle: Klucel (hydroxypropylcellulose) (HPC) 100 % of control
